Assay results published in ChEMBL document CHEMBL1124910, “Inhibition of human leukocyte elastase. 1. Inhibition by C-7-substituted cephalosporin tert-butyl esters” (J Med Chem, 1990).

Key:
Neutrophil elastase [1] = target: T1, Neutrophil elastase (Homo sapiens, UniProt P08246); test: Inhibitory concentration which is required to cause 50% inhibition of human leukocyte elastase (HLE) enzyme
T1 sequence (P08246 whole entry): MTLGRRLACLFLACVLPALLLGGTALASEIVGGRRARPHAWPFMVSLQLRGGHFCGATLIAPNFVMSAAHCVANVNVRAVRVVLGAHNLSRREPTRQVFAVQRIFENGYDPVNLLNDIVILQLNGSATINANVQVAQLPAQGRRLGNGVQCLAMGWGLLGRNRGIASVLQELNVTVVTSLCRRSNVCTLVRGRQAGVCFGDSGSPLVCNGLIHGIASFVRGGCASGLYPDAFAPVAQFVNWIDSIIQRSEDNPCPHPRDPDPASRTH

[2] = target: T2, Neutrophil elastase (Homo sapiens) (UniProt P08246)
T2 sequence (whole entry): T1 sequence (P08246 whole entry)
Description: Second-order rate constant (Kobs/[I]) for inactivation of Human Leukocyte Elastase was determined

Pancreatic elastase [3] = target: T3, Pancreatic elastase (Sus scrofa, UniProt P08419+P00772); test: Inhibitory concentration which is required to cause 50% inhibition of porcine pancreatic elastase (PPE); type: protein assay
Serine protease 1 [4] = target: T4, Serine protease 1 (Bos taurus, UniProt P00760); test: Inhibitory concentration which is required to cause 50% inhibition of bovine trypsin (Trp)
T4 sequence (P00760 whole entry): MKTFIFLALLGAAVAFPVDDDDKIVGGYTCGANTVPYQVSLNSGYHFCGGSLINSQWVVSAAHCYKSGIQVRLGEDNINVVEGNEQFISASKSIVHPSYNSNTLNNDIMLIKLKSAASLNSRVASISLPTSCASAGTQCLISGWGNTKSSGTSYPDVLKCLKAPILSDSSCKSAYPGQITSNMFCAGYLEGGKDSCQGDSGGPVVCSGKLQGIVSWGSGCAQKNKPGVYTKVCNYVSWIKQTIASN

[5] = target: T2, Neutrophil elastase (Homo sapiens); test: Second-order rate constant (Kobs/[I]) for inactivation was determined
Neutrophil elastase [6] = target: T1, Neutrophil elastase; test: Inhibitory concentration which is required to cause 50% inhibition of human leukocyte elastase (HLE) enzyme; NVT indicates nonvalid test
Serine protease 1 [7] = target: T4, Serine protease 1; test: Inhibitory concentration which is required to cause 50% inhibition of Trypsin
Chymotrypsinogen A [8] = target: T5, Chymotrypsinogen A (Bos taurus, UniProt P00766); test: Inhibitory concentration which is required to cause 50% inhibition of alpha-chymotrypsin enzyme
Pancreatic elastase [9] = target: T3, Pancreatic elastase; test: Inhibitory concentration which is required to cause 50% inhibition of Porcine pancreatic elastase (PPE) enzyme; type: protein assay
Chymotrypsinogen A [10] = target: T5, Chymotrypsinogen A; test: Inhibitory concentration which is required to cause 50% inhibition of bovine alpha-chymotrypsin (ChT)

Compound	IC50 (Neutrophil elastase [1]) [µM]	other results
CO[C@H]1C(=O)N2C(C(=O)OC(C)(C)C)=C(COC(C)=O)CS(=O)(=O)[C@H]12	1	K obs / 1 [2]: 19000 M⁻¹ s⁻¹
CCC(C)O[C@H]1C(=O)N2C(C(=O)OC(C)(C)C)=C(COC(C)=O)CS[C@H]12 (some centres undefined)	> 40	
CC(=O)OCC1=C(C(=O)OC(C)(C)C)N2C(=O)[C@H](OC=O)[C@H]2S(=O)(=O)C1	0.3	IC50 (Pancreatic elastase [3]): 0.4 µM; IC50 (Serine protease 1 [4]): > 40 µM; K obs / 1 [5]: 59000 M⁻¹ s⁻¹
CO[C@H]1C(=O)N2C(C(=O)OC(C)(C)C)=C(COC(C)=O)C[S@+]([O-])[C@H]12	4	K obs / 1 [5]: 500 M⁻¹ s⁻¹
CCC(C)O[C@H]1C(=O)N2C(C(=O)OC(C)(C)C)=C(COC(C)=O)CS(=O)(=O)[C@H]12 (some centres undefined)	28	
CC(=O)OCC1=C(C(=O)OC(C)(C)C)N2C(=O)[C@H](NC(=O)C(F)(F)F)[C@H]2S(=O)(=O)C1	2	
CC(=O)OCC1=C(C(=O)OC(C)(C)C)N2C(=O)[C@H](F)[C@H]2SC1	20	
CC(=O)OCC1=C(C(=O)OC(C)(C)C)N2C(=O)[C@H](OC(=O)COc3ccccc3)[C@H]2S(=O)(=O)C1	6	
CCCCO[C@H]1C(=O)N2C(C(=O)OC(C)(C)C)=C(COC(C)=O)CS(=O)(=O)[C@H]12	> 40	
CC(=O)OCC1=C(C(=O)OC(C)(C)C)N2C(=O)[C@H](OS(=O)(=O)c3ccc(C)cc3)[C@H]2SC1		IC50 (Neutrophil elastase [6]): Non valid test
CCO[C@H]1C(=O)N2C(C(=O)OC(C)(C)C)=C(COC(C)=O)CS[C@H]12	> 40	
CC(=O)OCC1=C(C(=O)OC(C)(C)C)N2C(=O)C[C@H]2S(=O)(=O)C1	> 40	
CCC(CC)O[C@H]1C(=O)N2C(C(=O)OC(C)(C)C)=C(COC(C)=O)CS(=O)(=O)[C@H]12	> 40	
CCCC[C@H]1C(=O)N2C(C(=O)OC(C)(C)C)=C(COC(C)=O)CS(=O)(=O)[C@H]12	40	
CCO[C@H]1C(=O)N2C(C(=O)OC(C)(C)C)=C(COC(C)=O)C[S+]([O-])[C@H]12 (stereo in doubt; 6b)	40	
CO[C@H]1C(=O)N2C(C(=O)OC(C)(C)C)=C(COC(C)=O)C[S@@+]([O-])[C@H]12	> 40	
CC(=O)OCC1=C(C(=O)OC(C)(C)C)N2C(=O)[C@H](OC(=O)Cc3ccccc3)[C@H]2S(=O)(=O)C1	10	IC50 (Serine protease 1 [7]): > 40 µM; IC50 (Chymotrypsinogen A [8]): 4 µM; IC50 (Pancreatic elastase [9]): 20 µM
CCO[C@H]1C(=O)N2C(C(=O)OC(C)(C)C)=C(COC(C)=O)C[S+]([O-])[C@H]12 (stereo in doubt; 7b)	> 40	
CCC(=O)O[C@H]1C(=O)N2C(C(=O)OC(C)(C)C)=C(COC(C)=O)CS[C@H]12	36	
O=C(OCc1ccccc1)[C@H]1/C(=C/CO)O[C@@H]2CC(=O)N21	4	
CC(=O)OCC1=C(C(=O)OC(C)(C)C)N2C(=O)[C@H](Oc3ccccc3)[C@H]2S(=O)(=O)C1	1	K obs / 1 [2]: 720 M⁻¹ s⁻¹

Compound	IC50 (Neutrophil elastase [1]) [µM]	other results
CC(=O)OCC1=C(C(=O)OC(C)(C)C)N2C(=O)[C@H](F)[C@H]2S(=O)(=O)C1	0.06	
CC(=O)OCC1=C(C(=O)OC(C)(C)C)N2C(=O)[C@@H](NC(=O)C(F)(F)F)[C@H]2S(=O)(=O)C1	> 40	
CC(=O)OCC1=C(C(=O)OC(C)(C)C)N2C(=O)[C@H](NC(=O)Cc3cccs3)[C@H]2S(=O)(=O)C1	> 40	
CC(=O)OCC1=C(C(=O)OC(C)(C)C)N2C(=O)[C@H](NC=O)[C@H]2S(=O)(=O)C1	4	K obs / 1 [5]: 1200 M⁻¹ s⁻¹
CCCO[C@H]1C(=O)N2C(C(=O)OC(C)(C)C)=C(COC(C)=O)CS[C@H]12	> 40	
CC(=O)OCC1=C(C(=O)OC(C)(C)C)N2C(=O)[C@H](Cl)[C@H]2SC1	2	
O=C(O)[C@H]1/C(=C/CO)O[C@@H]2CC(=O)N21 [CLAVULANIC ACID]	< 40	
CO[C@H]1C(=O)N2C(C(=O)OC(C)(C)C)=C(COC(C)=O)CS[C@H]12	10	
CCCCO[C@H]1C(=O)N2C(C(=O)OC(C)(C)C)=C(COC(C)=O)CS[C@H]12	> 40	
CC(=O)OCC1=C(C(=O)OC(C)(C)C)N2C(=O)[C@@H](N)[C@H]2SC1	> 40	
CC(=O)OCC1=C(C(=O)OC(C)(C)C)N2C(=O)[C@@H](NC(=O)Cc3cccs3)[C@H]2S(=O)(=O)C1	> 40	
COC(=O)N[C@H]1C(=O)N2C(C(=O)OC(C)(C)C)=C(COC(C)=O)CS(=O)(=O)[C@H]12	4	K obs / 1 [5]: 1600 M⁻¹ s⁻¹
CC(=O)OCC1=C(C(=O)OC(C)(C)C)N2C(=O)[C@H](OC(=O)c3ccccc3)[C@H]2S(=O)(=O)C1	> 40	
CCC(=O)O[C@H]1C(=O)N2C(C(=O)OC(C)(C)C)=C(COC(C)=O)CS(=O)(=O)[C@H]12	10	K obs / 1 [2]: 80 M⁻¹ s⁻¹
CO[C@@H]1C(=O)N2C(C(=O)OC(C)(C)C)=C(COC(C)=O)CS(=O)(=O)[C@H]12	> 40	
CC(=O)OCC1=C(C(=O)OC(C)(C)C)N2C(=O)[C@H](Cl)[C@H]2S(=O)(=O)C1	0.04	K obs / 1 [2]: 161000 M⁻¹ s⁻¹
CC(=O)OCC1=C(C(=O)OC(C)(C)C)N2C(=O)[C@H](OCc3ccccc3)[C@H]2S(=O)(=O)C1	> 10	
CNC(=O)O[C@H]1C(=O)N2C(C(=O)OC(C)(C)C)=C(COC(C)=O)CS(=O)(=O)[C@H]12	1	K obs / 1 [2]: 180 M⁻¹ s⁻¹
CC(=O)OCC1=C(C(=O)OC(C)(C)C)N2C(=O)[C@H](OC(C)=O)[C@H]2S(=O)(=O)C1	6	IC50 (Pancreatic elastase [3]): 2 µM; IC50 (Serine protease 1 [7]): > 40 µM; IC50 (Chymotrypsinogen A [10]): > 40 µM; K obs / 1 [2]: 950 M⁻¹ s⁻¹
CC(=O)OCC1=C(C(=O)OC(C)(C)C)N2C(=O)[C@H](OCCc3ccccc3)[C@H]2S(=O)(=O)C1	5	
